Experimental data as given in patent US10450358 (dated 2019).

Assays:
[1] = Pichia pastoris GS115 expression culture supernatant (methanol induction), purified protein; conditions: 28° C., up to 72 hours
[2] = Pichia pastoris GS115 expression culture supernatant (BMMY medium, methanol induction), purified protein; conditions: 28° C., up to 72 hours

| Sequence | not cleaved [1] | cleaved bond [2] |
| --- | --- | --- |
| AIAEPAMIAECKTRTEVFEISRRLIDPTNANFLVWPPCVEVQRCSGCCNNRNVQCRPTQVQLRPVQVRKIEIVRKKPIFKKATVTLEDHLACKCEAVAAARPVA | SDS-PAGE result showed that PDGF-M2 is a single band | – |
| TIAEPAMIAECKTRTEVFEISRRLIDPTNANFLVWPPCVEVQRCSGCCNNRNVQCRPTQVQLRPVQVRKIEIVRKKPIFKKATVTLEDHLACKCEAVAAARPVA | only single band could be detected after the two mutants were reduced (WB) | – |
| TIAEPAMIAECKTRTEVFEISRRLIDRTNANFLVWPPCVEVQRCSGCCNNRNVQCRPTQVQLRPVQVRKIEIVRKKPIFKKATVTLEDHLACKCETVAAARPVT | – | Arg32-Thr33 |
